This test has as its target T1, MsrA/B.
T1 construct: recombinant, msr gene of strain 1291 in pET15b (NdeI/XhoI primers), His-tagged, E. coli BL21 Star (DE3)pLysS, TALON purified; full protein 522 aa; amine-coupled to SPR chip
Nature of the test: SPR, Biacore T200, single cycle kinetics, MsrA/B immobilized by amine coupling on CM5 chip. It counts as binding, Neisseria gonorrhoeae. The following applies: free Met(O) 0.16-100 nM; no serum; substrate; sulfoxide epimer and D/L form not told. From the text: SPR, Biacore T200, single cycle kinetics, MsrA/B immobilized by amine coupling on CM5 chip on MsrA/B | MsrA/B bound to Met(O) with a high affinity, with a KD

Molecules are shown by their SMILES.

A word on the Kd: it is the constant that tells how readily two partners part at equilibrium. Low readings indicate higher affinity, high ones lower affinity. `C[S+]([O-])CC[C@H](N)C(=O)O` (stereo partly shown) [Met(O)] came in with a Kd of 15.4 ± 3.7 nM.
